Measured values published in ChEMBL document CHEMBL5052853, “Isoxazole derivatives targeting tacc3 as anticancer agents” (2021).
Calls of active or inactive are those of the source. The rule behind the calls is not given here.

How the values were obtained:
JIMT-1 [1] = experiment: Induction of mitotic arrest in human JIMT-1 cells assessed as increase in multipolar spindles formation at 200 to 500 nM; assay type: functional, cell-based; conditions: dose 200-500 nM
JIMT-1 [2] = experiment: Stabilization of human TACC3 expressed in JIMT-1 cells at 1 uM incubated for 6 hrs by cellular thermal shift assay; assay type: cell-based
[3] = Toxicity in female nude mouse assessed as body weight at 100 mg/kg, po after 6 days of administration; assay type: organism-based; conditions: in vivo, 144 h, time 6 day
JIMT-1 [4] = experiment: Antiproliferative activity against human JIMT-1 cells after 72 hrs by SRB assay; assay type: functional, cell-based; conditions: JIMT-1, 72 h
[5] = Toxicity in female nude mouse assessed as body weight at 100 mg/kg, po after 5 days of administration; assay type: organism-based; conditions: in vivo, 120 h, time 5 day
[6] = Plasma protein binding in human assessed as unbound fraction; assay type: ADME, cell-free
JIMT-1 [7] = experiment: Antitumor activity in human JIMT-1 cells xenografted female immunodeficient nude mouse at 5 mg/kg, po administered every other day for 30 days; assay type: functional, organism-based; conditions: time 30.0 day
JIMT-1 [8] = experiment: Induction of DNA damage in human JIMT-1 cells assessed as change in p-H2AX levels and measured by Western blot analysis; assay type: functional, cell-based; conditions: dose 0.1-5 µM
JIMT-1 [9] = experiment: Induction of mitotic arrest in human JIMT-1 cells assessed as increased localization of spindle assembly checkpoint marker BuBR1 to chromosomes at 500 nM measured by immunofluorescence staining method; assay type: functional, cell-based
JIMT-1 [10] = experiment: Antitumor activity in human JIMT-1 cells xenografted female nude mouse at 2 mg/kg, po administered every other day; assay type: functional, organism-based
JIMT-1 [11] = experiment: Induction of apoptosis in human JIMT-1 cells at 200 nM assessed as change in cleaved PARP levels in presence of Mps1 inhibitor TC Mps1 and measured by Western blot analysis; assay type: functional, cell-based
[12] = Toxicity in female nude mouse assessed as body weight at 100 mg/kg, po after 2 days of administration; assay type: organism-based; conditions: in vivo, 48 h, time 2 day
4T1 = experiment: Antitumor activity in mouse 4T1-Luc cells xenografted immunocompetent female mouse assessed as impairment of metastatic growth at 50 mg/kg, po administered every day; assay type: functional, organism-based
JIMT-1 [13] = experiment: Induction of mitotic arrest in human JIMT-1 cells at 200 nM assessed as change in p-histone H3 levels in presence of Mps1 inhibitor TC Mps1 and measured by Western blot analysis; assay type: functional, cell-based
[14] = Toxicity in human HCT-116 cells xenografted immunocompromised female nude mouse assessed as effect on body weight at 25 to 50 mg/kg, po administered daily; assay type: organism-based; conditions: in vivo, dose 25-50 mg/kg
[15] = Toxicity in mouse EMt6 cells xenografted syngeneic Balb/c mouse assessed as effect on body weight; conditions: in vivo
MCF-12A = experiment: Antiproliferative activity against human MCF-12A cells; assay type: functional, cell-based
[16] = Toxicity in human JIMT-1 cells xenografted female immunodeficient nude mouse assessed as effect on body weight at 5 mg/kg, po administered every other day for 30 days; assay type: organism-based; conditions: in vivo, 720 h, time 30 day
[17] = Toxicity in female nude mouse assessed as body weight at 100 mg/kg, po after 4 days of administration; assay type: organism-based; conditions: in vivo, 96 h, time 4 day
[18] = Kinetic solubility in sodium phosphate buffer at pH 7.4 at 25 degree C after 2 hrs; assay type: physicochemical; conditions: read-out: Kinetic_solubility
HCC1954 = experiment: Antiproliferative activity against human HCC1954 cells; assay type: functional, cell-based
[19] = Toxicity in human JIMT-1 cells xenografted female nude mouse assessed as effect on body weight at 5 mg/kg, po administered every other day; assay type: organism-based; conditions: in vivo
JIMT-1 [20] = experiment: Induction of DNA damage in human JIMT-1 cells at 200 nM assessed as change in p-H2AX levels in presence of Mps1 inhibitor TC Mps1 and measured by Western blot analysis; assay type: functional, cell-based
[21] = Toxicity in human JIMT-1 cells xenografted female nude mouse assessed as effect on body weight at 2 mg/kg, iv administered once every 2 weeks; assay type: organism-based; conditions: in vivo, 336 h
JIMT-1 [22] = experiment: Antitumor activity in human JIMT-1 cells xenografted female nude mouse at 25 mg/kg, po administered for 23 days; assay type: functional, organism-based; conditions: time 23.0 day
[23] = Toxicity in female nude mouse assessed as body weight at 500 mg/kg, po administered once and measured after 1 day of administration; assay type: organism-based; conditions: in vivo, 24 h
JIMT-1 [24] = experiment: Induction of apoptosis in human JIMT-1 cells assessed as increase in apoptotic cells at 500 nM measured by Annexin-V and PI staining method (reference value: 4.1 +/- 0.3 %); assay type: functional
[25] = Binding affinity to purified recombinant human TACC3 by isothermal titration calorimetry
HCC1143 = experiment: Antiproliferative activity against human HCC1143 cells; assay type: functional, cell-based
JIMT-1 [26] = experiment: Inhibition of colony formation in human JIMT-1 cells at 0.1 to 1 uM assessed as decrease in colony number incubated for 12 days by crystal violet staining based assay; assay type: functional, cell-based; conditions: dose 0.1-1 µM, time 12.0 day
HCT-116 = experiment: Antitumor activity in human HCT-116 cells xenografted immunocompromised female nude mouse at 25 to 50 mg/kg, po administered daily; assay type: functional, organism-based; conditions: dose 25-50 mg/kg
[27] = Toxicity in human JIMT-1 cells xenografted female nude mouse assessed as effect on body weight at 2 mg/kg, po administered every other day; assay type: organism-based; conditions: in vivo
JIMT-1 [28] = experiment: Induction of apoptosis in human JIMT-1 cells assessed as change in cleaved PARP levels and measured by Western blot analysis; assay type: functional, cell-based; conditions: dose 0.1-5 µM
JIMT-1 [29] = experiment: Antitumor activity in human JIMT-1 cells xenografted female nude mouse at 2 mg/kg, iv administered once every 2 weeks; assay type: functional, organism-based
JIMT-1 [30] = experiment: Induction of mitotic arrest in human JIMT-1 cells assessed as change in p-histone H3 levels and measured by Western blot analysis; assay type: functional, cell-based; conditions: dose 0.1-5 µM
JIMT-1 [31] = experiment: Induction of mitotic arrest in human JIMT-1 cells assessed as increase in aberrant spindle formation at 200 to 500 nM measured by DAPI staining method; assay type: functional, cell-based; conditions: dose 200-500 nM
RT-112 [32] = experiment: Induction of mitotic arrest in human RT-112 cells assessed as decrease in ERK1/2 phosphorylation at 5 uM measured by western blot analysis; assay type: functional, cell-based
[33] = Toxicity in female nude mouse assessed as body weight at 500 mg/kg, po administered once and measured after 2 days of administration; assay type: organism-based; conditions: in vivo, 48 h, time 2 day
CAL-51 = experiment: Antiproliferative activity against human CAL-51 cells; assay type: functional, cell-based
CT26 = experiment: Antitumor activity in mouse CT26 cells xenografted syngeneic immunocompetent Balb/c mouse at 25 to 50 mg/kg, po administered daily; assay type: functional, organism-based; conditions: dose 25-50 mg/kg
[34] = Toxicity in female nude mouse assessed as body weight at 100 mg/kg, po after 1 day of administration; assay type: organism-based; conditions: in vivo, 24 h
JIMT-1 [35] = experiment: Stabilization of human TACC3 expressed in JIMT-1 cells at 10 uM incubated for 20 mins and measured in presence of pronase by drug affinity responsive target stability assay; assay type: cell-based
MDA-MB-231 = experiment: Antiproliferative activity against human MDA-MB-231 cells; assay type: functional, cell-based
[36] = Toxicity in female nude mouse assessed as organ toxicity at 500 mg/kg, po administered once for 1 to 3 days; assay type: organism-based; conditions: in vivo, time 1-3 day
JIMT-1 [37] = experiment: Antitumor activity in human JIMT-1 cells xenografted female nude mouse at 5 mg/kg, po administered every other day; assay type: functional, organism-based
[38] = Toxicity in mouse 4T1-Luc cells xenografted immunocompetent female mouse assessed as animal survival at 50 mg/kg, po administered every day; assay type: organism-based; conditions: in vivo
[39] = Toxicity in human JIMT-1 cells xenografted female nude mouse assessed as effect on body weight at 25 mg/kg, po administered for 23 days; assay type: organism-based; conditions: in vivo, 552 h, time 23 day
[40] = Toxicity in mouse EMT6 cells xenografted syngeneic Balb/c mouse assessed as animal survival rate measured by Kaplan-Meier plot analysis; conditions: in vivo
EMT6 = experiment: Antitumor activity in mouse EMT6 xenografted cells syngeneic Balb/c mouse
JIMT-1 [41] = experiment: Induction of apoptosis in human JIMT-1 cells assessed as change in cleaved caspase-3 levels and measured by Western blot analysis; assay type: functional, cell-based; conditions: dose 0.1-5 µM
[42] = Toxicity in mouse CT26 cells xenografted syngeneic immunocompetent Balb/c mouse assessed as effect on body weight at 25 to 50 mg/kg, po administered daily; assay type: organism-based; conditions: in vivo, dose 25-50 mg/kg
[43] = Toxicity in female nude mouse assessed as body weight at 500 mg/kg, po administered once and measured after 3 days of administration; assay type: organism-based; conditions: in vivo, 72 h, time 3 day
RT-4 = experiment: Antiproliferative activity against human RT-4 cells after 3 days by SRB assay; assay type: functional, cell-based; conditions: RT-4, 72 h
RT-112 [44] = experiment: Antiproliferative activity against human RT-112 cells after 3 days by SRB assay; assay type: functional, cell-based; conditions: RT-112, 72 h
[45] = Toxicity in female nude mouse assessed as body weight at 100 mg/kg, po after 7 days of administration; assay type: organism-based; conditions: in vivo, 168 h, time 7 day
[46] = Toxicity in female nude mouse assessed as body weight at 100 mg/kg, po after 3 days of administration; assay type: organism-based; conditions: in vivo, 72 h, time 3 day

Activity [6]: 1.13%
solubility kinetic at 2 h [18]: < 1 µM
Kd [25]: 1.5 nM
SMILES: COc1ccc(-c2cc(Nc3ccnc(N4CCOCC4)n3)on2)cc1
Activity (JIMT-1 [1]): Active
Activity (JIMT-1 [2]): Active
Activity [3]: 16.7 g
IC50 (JIMT-1 [4]): 120 nM
Activity [5]: 16.5 g
Activity (JIMT-1 [7]): Active
Activity (JIMT-1 [8]): Dose-Dependent Effect
Activity (JIMT-1 [9]): Active
Activity (JIMT-1 [10]): Active
Activity (JIMT-1 [11]): Active
Activity [12]: 16.2 g
Activity (4T1): Active
Activity (JIMT-1 [13]): Active
Activity [14]: Non-Toxic
Activity [15]: Non-Toxic
IC50 (MCF-12A): > 10000 nM
Activity [16]: Non-Toxic
Activity [17]: 17 g
Activity (HCC1954): Active
Activity [19]: Non-Toxic
Activity (JIMT-1 [20]): Active
Activity [21]: Non-Toxic
Activity (JIMT-1 [22]): Active
Activity [23]: 21.1 g
Activity (JIMT-1 [24]): 45.6%
Activity (HCC1143): Active
Activity (JIMT-1 [26]): Active
Activity (HCT-116): Active
Activity [27]: Non-Toxic
Activity (JIMT-1 [28]): Dose-Dependent Effect
Activity (JIMT-1 [29]): Active
Activity (JIMT-1 [30]): Dose-Dependent Effect
Activity (JIMT-1 [31]): Active
Activity (RT-112 [32]): Active
Activity [33]: 20.9 g
Activity (CAL-51): Active
Activity (CT26): Active
Activity [34]: 17.4 g
Activity (JIMT-1 [35]): Active
Activity (MDA-MB-231): Active
Activity [36]: Non-Toxic
Activity (JIMT-1 [37]): Active
MSD [38]: 28 days
Activity [39]: Non-Toxic
MSD [40]: 22 days
Activity (EMT6): Active
Activity (JIMT-1 [41]): Dose-Dependent Effect
Activity [42]: Non-Toxic
Activity [43]: 21.5 g
IC50 (RT-4): 3660 nM
IC50 (RT-112 [44]): 300 nM
Activity [45]: 16.8 g
Activity [46]: 16.3 g
